Test results taken from US20060171983A1, “Use of Vitamin D receptor activators or Vitamin D analogs to treat cardiovascular disease” (priority 2003, published 2006).
“Also recorded” adds a separate entry of the source. Read-outs that look alike come from different tables or passages of the source.

Experiments:
[1] = Vascular calcification in 5/6 nephrectomized uremic rats; assay type: in vivo, rat; conditions: for elevation of iCa: 0.67 μg/kg; for Ca content in aorta compared to vehicle / phosphorus content in aorta compared to vehicle / 45Ca uptake in aorta rings compared to vehicle: 0.67 μg/kg i.p. 3 times/week for 2 weeks; for 45Ca uptake in aorta rings compared to vehicle: rings 3 days in 45Ca
Experimental: The 5/6 nephrectomized rats were obtained from Charles River Labs. (Wilmington, Mass.). Two weeks after nephrectomy, rats were put on a diet containing 0.9% phosphorous and 0.6% calcium for 4 weeks, followed by treatment with vehicle (5% ethanol+95% propylene glycol, 0.4 ml/kg), paricalcitol or doxercalciferol at 0.67 μg/kg, i.p., 3 times/week, for 2 weeks. Twenty-four hours after the last dosing, blood was collected via tail vein under ketamine anesthesia (50 mg/kg) and aorta collected for calcification studies. […] After the aortas were removed in a sterile manner from the rats, the aventitia was gently removed and each aorta was washed three times with medium. A segment of each aorta was processed for calcium and phoshphorus determination. A separate portion of each aorta was denuded, cut into 2-3-mm rings and placed in DMEM containing 0.2 μCi/ml ^45Ca for 3 days at 37° C. Afterwards, aortic rings were washed, dried, weighed, and then dissolved to determine radioactivity. […] Both paricalcitol and doxercalciferol at 0.67 μg/kg elevated iCa (˜25%) and suppressed PTH (>90%).

[2] = Active calcium transport in duodenum ex vivo; set-up: species or system rat; conditions: uremic rats with SHPT
[3] = test system: PAI-1; experiment: PAI-1 Western blot in primary culture of human coronary artery smooth muscle cells; assay type: cell-based; conditions: 24 hr
Experimental: Human coronary artery smooth muscle cells were incubated with paricalcitol or calcitriol at the indicated concentration for 24 hr at 37° C. Samples were solubilized in SDS-PAGE sample buffer, and the protein content in each sample was determined by the Bio-Rad dye-binding protein assay. Samples were resolved by SDS-PAGE using a 4-12% gel, and proteins were electrophoretically transferred to PVDF membrane for Western blotting. The membrane was blotted for 1 h at 25° C. with 5% nonfat dry milk in PBS-T and then incubated with a mouse anti-PAI-1 monoclonal antibody in PBS-T overnight at 4° C. The membrane was washed with PBS-T and incubated with a horseradish peroxidase-labeled […] antibody for 1 h at 25° C. The membrane was then incubated with detection reagent (SuperSignal WestPico). The specific bands were visualized by exposing the paper to Kodak BioMax films.

[4] = test system: human CASMC; experiment: 45Ca uptake into primary culture of human coronary artery smooth muscle cells
Experimental: Primary cultured human CASMC were grown to >80% confluence and used within five passages. Cells were treated with drugs for 5 days in the appropriate medium, and then changed back to base medium (N1: DMEM containing 1.8 mM Ca^+2 and 0.9 mM PO−4) containing 0.2 μCi/ml ^45Ca for 24 hr. Afterwards, cells were washed with PBS three times and radioactivity measured by liquid scintillation.

[5] = test system: renin gene promoter; experiment: Renin promoter-luciferase reporter assay; assay type: cell-based
Excerpt: (§1) Using an in vitro cell culture system, the activity of paricalcitol to suppress renin gene expression was examined using previously published techniques (1,25-Dihydroxyvitamin D3 is a negative endocrine regulator of the renin-angiotensin system, J. Clin. Invest., July 2002). […] This inhibitory effect is confirmed by renin promoter-luciferase reporter assays, which examine the activity of paricalcitol to suppress renin gene transcription.
(§2) In the present study, an investigation was made of the in vitro and in vivo activity of paricalcitol, a FDA-approved low calcemic vitamin D analog, to inhibit renin biosynthesis. To this end, As4.1-hVDR cells, a JG cell-like cell line stably transfected with human VDR, was treated with paricalcitol or 1,25(OH)2D3 at doses ranging from 10^−10 to 10^−7 M for 24 hours, and its renin-inhibiting activity was assessed by Northern blot analyses; the cells were also transfected with renin gene promoter-luciferase reporter plasmid, and luciferase activity was determined in the presence and absence of paricalcitol or 1,25(OH)2D3.

[6] = test system: CYP24A1; experiment: CYP24A1 mRNA expression in human CASMC (control); assay type: cell-based; conditions: dose-dependent manner
[7] = test system: renin; experiment: Renin mRNA expression in vitamin D-deficient rats; assay type: in vivo, rat; conditions: 0.003-0.3 μg/kg i.p. three times per week, 2 weeks
Experimental: (§3) Weanling Sprague-Dawley male rats housed in an environment free of UV light were fed a 0.4% Ca, 0.3% P, vitamin D-deficient diet for 5 weeks, then switched to a 0.02% Ca, 0.5% P, vitamin D-deficient diet for 21 days. Rats were dosed with 0.003, 0.01, 0.03, and 0.3 μg/kg of paricalcitol, i.p., three times per week, for the final 2 weeks. A control group of animals was given vehicle only (5% ethanol/95% propylene glycol), and untreated, age-matched animals on normal diet (0.5% Ca, 0.4% P) served as normal peer control. Twenty-four hours after the last dose, the rats were anesthetized with ketamine (100 mg/kg), cardiac bled, killed by CO2, tissues collected for RNA extraction and real-time RT-PCR analysis, and serum taken for determination of calcium, phosphorus, and PTH.

[8] = Renin mRNA expression in vitamin D-deficient rats; assay type: in vivo, rat; conditions: 0.003-0.3 μg/kg i.p. three times per week, 2 weeks
Experimental: as §3

[9] = test system: 24(OH)ase; experiment: Effect of drugs on the expression of 24(OH)ase; assay type: cell-based; conditions: relative to calcitriol
Experimental: Two observations may be noted in these studies: (1) 100% inhibition of growth was never achieved even at 1 μM of any of the test compound. Confocal microscopy studies confirm that, although these drugs are potent in inducing the translocation of VDR from cytoplasm to nucleus, not all cells respond to VDRAs even after 2 h of exposure, which may explain the <100% inhibition. […] Paricalcitol is usually dosed approximately 4 fold higher than calcitriol in the clinical situation, which may translate into a 4-fold higher potency in regulating the function of smooth muscle cells.

[10] = Observational cohort study of hospitalization outcomes in hemodialysis patients; assay type: in vivo, human; conditions: for median number of days spent in the hospital (hospital days per year) / median number of hospitalizations in a year: hemodialysis patients, FIG. 2; for fewer hospital days compared to the No Vitamin D group / fewer hospitalizations compared to the No Vitamin D group: regression analysis, FIG. 3
Excerpt: This study was expanded to include patients who received no Vitamin D receptor activator treatment. [“Improved hospitalization outcomes in hemodialysis patients treated with paricalcitol.” J. Melnick, et al., abstract book from World Congress of Nephrology, Jun. 8-12, 2003, Berlin.

[11] = Historical cohort of vascular access changes in HD patients with AV fistula; assay type: in vivo, human
Experimental: Methods: A historical cohort of 2112 adult patients new to HD, with an AV fistula as the initial primary vascular access were followed over a 35-month period (January 1999 thru November 2001) using a dialysis provider database. Patients were treated with Zemplar or no vitamin D therapy; patients receiving Zemplar therapy received at least 10 doses and remained on the same therapy. Descriptive summary statistics were used to summarize baseline characteristics and the total number of vascular access changes per year between treatment modalities. In addition, regression models were used to evaluate the association between Zemplar or no vitamin D therapy and the total number of vascular access changes per year.

[12] = Dobrez et al. 2004; cited from earlier work
[13] = assay type: in vivo, rat
Experimental: It is clinically important to suppress elevated serum PTH levels in ESRD patients with established secondary hyperparathyroidism (SHPT) independent of hypercalcemia. Moreover, the 5/6 uremic rat model has effectively predicted the clinical profile of vitamin D analogues with respect to PTH and hypercalcemia. Thus, a direct comparison was conducted of paricalcitol (PARI) and doxercalciferol (DOX) in male Sprague Dawley rats subjected to 5/6 nephrectomy (surgical ablation) placed on 4 weeks of a high phosphorous diet (0.9% phos., 0.6% Ca) to establish SHPT. On Day 0, rats received vehicle (VEH; 5% ethanol, 95% propylene glycol; 0.4 ml/kg; IP) or drug (0.083, 0.17, 0.33, 0.66 mcg/kg; n=7-10/group) 3 times/week for 12 days. Blood samples were collected 24 hr post dose (Day 13). Day 0 values (mean±SEM) for: creatinine (VEH vs sham) were 1.02±0.05 vs 0.48±0.01 mg/dL; PTH, 1320±185 vs 178±11 pg/ml; blood ionized calcium (iCa; 1.26±0.01 vs 1.30±0.01 mmol/L); phosphorous (8.70±0.34 vs 7.36±0.09 mg/dL). In VEH, the ratio of Day 13/Day 0 iCa values declined to 0.93±0.02 vs 1.02±0.01 for sham; PTH and phosphorous tended to increase. […] PARI had no effect on iCa at 0.33 mcg/kg whereas the iCa ratio increased modestly to 1.05±0.02*# at 0.66 mcg/kg, less than that of DOX. The Day 13/Day 0 PTH ratios for DOX fell to 0.43±0.12, 0.26±0.06*, and 0.22±0.11* in response to 0.18, 0.33, 0.66 mcg/kg, respectively, while PARI decreased PTH ratios to 0.37±0.07*, 0.33±0.06*, 0.13±0.02*. Serum phosphorus was not affected in any treatment group. […] Thus, in the uremic rat with established SHPT, DOX suppresses serum PTH levels concomitant with dose-dependent elevations in ionized calcium greater than those caused by equal doses of. PARI. At these doses, PARI effectively reduces PTH without eliciting dose-dependent changes in ionized blood calcium. *=p<0.05 vs. VEH ANOVA; # p<0.05 unpaired t test DOX vs PARI

[14] = test system: renin mRNA expression in As4.1-hVDR cells; experiment: Northern blot of renin mRNA expression in As4.1-hVDR cells; assay type: cell-based
Excerpt: as §1, §2

[15] = test system: renin; experiment: In vivo renin inhibition in CD-1 male mice; set-up: species or system mouse; conditions: 1.5 and 3.0 μg/kg i.p. 3 times a week for three weeks
[16] = test system: PAI-1; experiment: PAI-1 mRNA expression in human CASMC (control); assay type: cell-based; conditions: dose-dependent manner
[17] = test system: bovine vascular smooth muscle cells (SMC); conditions: 10^-7 to 10^-9 M, in vitro; cited from earlier work
[18] = 1-100 nM, cells in N1 or 60% N1/40% P1 media, 5 days
[19] = 0.18 mcg/kg IP 3 times/week for 12 days
[20] = 0.33 mcg/kg IP 3 times/week for 12 days
[21] = 0.66 mcg/kg IP 3 times/week for 12 days

Compound	elevation of iCa [1] [%]	Ca content in aorta compared to vehicle [1] [fold]	phosphorus content in aorta compared to vehicle [1]	45Ca uptake in aorta rings compared to vehicle [1]	active calcium transport in duodenum ex vivo [2]	potency in reducing the PAI level [3]	effect on 45Ca uptake [4, 18]	median number of days spent in the hospital (hospital days per year) [10] [days]	median number of hospitalizations in a year [10]	fewer hospital days compared to the No Vitamin D group [10] [days]	fewer hospitalizations compared to the No Vitamin D group [10]	Day 13/Day 0 PTH ratio [13, 19]	Day 13/Day 0 PTH ratio [13, 20]	Day 13/Day 0 PTH ratio [13, 21]	other results
C[C@H](/C=C/[C@H](C)C(C)(C)O)[C@H]1CC[C@H]2/C(=C/C=C3C[C@@H](O)C[C@H](O)C3)CCC[C@]12C [paricalcitol]	~25	1.6	no significant difference	no significant difference	no effect	equally potent	no significant effects	5.2	1.5	17.5	1.2	0.37±0.07	0.33±0.06	0.13±0.02	effect on 45Ca uptake ([4]; 100 nM, cells in N1 medium or different doses of P1 medium (20-60%)): did not show a significant effect; potency in suppressing renin gene promoter activity relative to calcitriol / 1,25(OH)2D3 [5]: comparable to that of 1,25(OH)2D3; also recorded: at least as potent as calcitriol; effect on renin gene transcription ([5]; As4.1-hVDR cells): suppresses; CYP24A1 mRNA expression [6]: stimulated; renal renin mRNA expression [7]: normalized; calcium [8]: did not result in a significant change; serum PTH [8]: reduced serum PTH dose-dependently; potency on stimulating the expression of 24(OH)ase [9]: less potent than calcitriol; total number of vascular access changes (average) ([11]; HD patients with AV fistula, p=0.0034 vs no D): 0.6 changes per year; more vascular access changes in No D group than in Zemplar patients ([11]; negative binomial regression, p=0.038): 28%; hospitalizations related to cardiovascular events and non-infectious inflammations compared with calcitriol [12]: fewer hospitalizations; renin-inhibiting potency relative to calcitriol / 1,25(OH)2D3 [14]: comparable to that of 1,25(OH)2D3; also recorded: a bit more potent than calcitriol; effect on renin mRNA expression ([14]; 10^-10 to 10^-7 M, 24 hours): suppresses; also recorded: dose-dependently inhibits; body weight [15]: no effect; levels of blood ionized calcium [15]: only slightly increased; PAI-1 mRNA expression [16]: suppressed
C=C1/C(=C\C=C2/CCC[C@]3(C)[C@@H]([C@H](C)/C=C/[C@H](C)C(C)C)CC[C@@H]23)C[C@@H](O)C[C@@H]1O [doxercalciferol]	~25	1.0	17 fold	40 fold	dose-dependent increase							0.43±0.12	0.26±0.06	0.22±0.11	
C=C1/C(=C\C=C2/CCC[C@]3(C)[C@@H]([C@H](C)CCCC(C)(C)O)CC[C@@H]23)C[C@@H](O)C[C@@H]1O [calcitriol]						equally potent	no significant effects	10.6	2.2	7.7	no statistical difference				calcification of bovine vascular smooth muscle cells [17]: dose dependent increase
